In patent US20260224573A1, “CRYSTAL FORM OF COMPOUND, AND PREPARATION METHOD AND USE THEREOF” (FELICAMED BIOTECHNOLOGY CO., LTD., priority 2023, published 2026):
Read-outs that look alike come from different tables or passages of the source.

Experiment: Pharmacokinetics of free crystal form A in Beagle dogs
Format: in vivo
Conditions: for MRT last: read-out: MRT0-t; for bioavailability: from average AUC0-t after dose correction, read-out: F (oral bioavailability)
Procedure: All the animals in this experiment were randomly divided into 4 groups (3 dogs/sex/group). The animals in the group A, the group B, and the group D were fasted before administration, and the animals in the group C were fasted before the first administration and the last administration. All the animals were fasted for at least 12 h before administration, and food was resumed 4 h after administration. All the animals had free access to water and food during the experiment. The animals in the group A were intravenously injected with the drug at 2 mg/kg, and blood samples were collected from the jugular vein before and 0.033 […], and 24 h after administration. The animals in the group B and the group D received single intragastric administration of the drugs at 2 mg/kg and 20 mg/kg, respectively, and blood samples were collected from the jugular vein before and 0.083 […], and 24 h after administration. […] Blood samples were collected from the jugular vein before the first administration and the seventh administration and 0.083 […], and 24 h after administration. Blood samples were collected from the jugular vein before administration and 0.5 h after administration from the second administration to the sixth administration. The sample collected before the second administration was the sample collected 24 h after the first administration. The blood samples from the animals were collected through the jugular vein, with a blood sample volume of 0.5 mL/time. All collected whole blood samples were placed in centrifuge tubes containing ethylene diamine tetraacetic acid potassium salt (EDTA-K2), and the centrifuge tubes were turned upside down to allow the anticoagulant and blood to be fully mixed. All the samples were placed on wet ice before centrifugation and centrifuged at 1524 g for 10 min to separate plasma. The plasma samples were transferred to new centrifuge tubes and stored at -90° C. to […] until analysis. The drug concentration in the plasma of each Beagle dog was determined by liquid chromatography with tandem mass spectrometry (LC-MS/MS). The obtained plasma concentration data was analyzed by using the pharmacokinetic processing software WinNonlin 8.0 with a non-compartmental model to calculate relevant pharmacokinetic parameters.

[1] = both sexes, Beagle, dog, plasma, po, 2 mg/kg, i.g. 2 mg/kg single, male/female mean
[2] = both sexes, Beagle, dog, plasma, po, 6 mg/kg, i.g. 6 mg/kg once a day, seventh administration, male/female mean
[3] = both sexes, Beagle, dog, plasma, po, 6 mg/kg, i.g. 6 mg/kg, first administration, male/female mean
[4] = both sexes, Beagle, dog, plasma, po, 20 mg/kg, i.g. 20 mg/kg single, male/female mean
[5] = both sexes, Beagle, dog, plasma, po, i.g. 2 mg/kg single, male/female mean
[6] = both sexes, Beagle, dog, plasma, po, i.g. 6 mg/kg once a day, seventh administration, male/female mean
[7] = both sexes, Beagle, dog, plasma, po, i.g. 6 mg/kg, first administration, male/female mean
[8] = both sexes, Beagle, dog, plasma, po, i.g. 20 mg/kg single, male/female mean
[9] = both sexes, beagle, dog, plasma, iv, 2 mg/kg, i.v. 2 mg/kg, male and female, mean
[10] = both sexes, beagle, dog, plasma, iv, i.v. 2 mg/kg, male and female, mean

## CC[S@@](=N)(=O)C[C@H]1CC[C@H](N(C)c2ncnc3[nH]ccc23)CC1 [Free crystal form A]
[1]
  AUC(0-t): 8750 ng·h/mL
  MRT last: 5.37 h
[2]
  AUC(0-t): 26600 ng·h/mL
  MRT last: 5.12 h
[3]
  AUC(0-t): 30000 ng·h/mL
  MRT last: 5.49 h
[4]
  AUC(0-t): 101000 ng·h/mL
  MRT last: 5.2 h
Both sexes, Beagle, dog, plasma, po, i.g. 2 mg/kg single
  bioavailability: 88%
[5]
  Cmax: 1350 ng/mL
  Tmax: 1.33 h
  half-life: 3.89 h
[6]
  Cmax at 7 days: 4540 ng/mL
  Tmax at 7 days: 0.75 h
  half-life at 7 days: 4.1 h
Both sexes, Beagle, dog, plasma, po, i.g. 6 mg/kg, first administration
  bioavailability: 100%
[7]
  Cmax: 4710 ng/mL
  Tmax: 0.958 h
  half-life: 4.2 h
Both sexes, Beagle, dog, plasma, po, i.g. 20 mg/kg single
  bioavailability: 101%
[8]
  Cmax: 13300 ng/mL
  Tmax: 0.792 h
  half-life: 4.17 h
[9]
  AUC(0-t): 9940 ng·h/mL
  MRT last: 4.3 h
[10]
  C0: 4250 ng/mL
  clearance: 3.4 mL/min/kg
  half-life: 3.68 h
Both sexes, beagle, dog, plasma, iv, i.v. 2 mg/kg, male and female, mean, read-out: VdSS
  Vd: 0.939 L/kg
i.g. 6 mg/kg for 7 consecutive days
  drug accumulation: No significant drug accumulation
i.v. 2 mg/kg
  male-to-female ratio of AUC0-t: 0.748
  male-to-female ratio of C0: 0.758
i.v. 2 mg/kg, i.g. 2, 6, 20 mg/kg, before and after administration and blood sampling
  clinical observation: no obvious abnormalities were found
